Where only a bound is given, the exact number is not on record here.

For one series, the system named is Hepatitis C virus. The experiment in a line: Antiviral activity against HCV genotype 1b harboring wild type NS5B infected in human HuH7 cells assessed as inhibition of viral RNA replication after 5 days by RT-PCR method. The class given is functional, cell-based, Hepacivirus hominis. Particulars: Huh-7, 120 h.
Series [1] is described as follows: Cytotoxicity against human HuH7 cells assessed as inhibition of cell proliferation after 4 days by MTS assay. The class given is cell-based, Huh-7. In general terms: Formazan colour is commonly taken as a measure of viable cells.
A short description of series [2]: Cytotoxicity against human PBMC assessed as inhibition of cell proliferation after 5 days by MTT assay. The class given is cell-based.
Series [3] is described as follows: Cytotoxicity against human CEM cells assessed as inhibition of cell proliferation after 4 days by MTT assay. The class given is cell-based, CCRF-CEM.
Series [4] can be described thus: Cytotoxicity against African green monkey Vero cells assessed as inhibition of cell proliferation after 3 days by MTT assay. The class given is cell-based. Particulars: chlorocebus sabaeus.

Turning to `CC(C)OC(=O)[C@H](C)NP(=O)(OC[C@H]1O[C@@H](n2ccc(N)nc2=O)[C@@](F)(Cl)[C@@H]1O)Oc1ccccc1` (stereo partly drawn), in the series on Hepatitis C virus, the EC50 (as a rule, the concentration that produces a half-maximal response) is 0.1 µM and the EC90 (as a rule, the concentration at which the effect reaches the 90% level) was found to be 0.3 µM. Also, the CC50 (as a rule, the concentration that lowers cell viability or growth by half) at 96 h in series [1] was greater than 10 µM. Besides, in series [2], the CC50 at 120 h is greater than 100 µM. Also, the CC50 at 96 h in series [3] is greater than 100 µM. Also, the CC50 at 72 h in series [4] is greater than 100 µM.

On to `Nc1nc2c(ncn2[C@@H]2O[C@H](CO)[C@@H](O)[C@]2(F)Cl)c(=O)[nH]1`, for which, in the series on Hepatitis C virus, the EC50 is 19 µM and the EC90 came to 33 µM. In addition, in series [1], the cytotoxic concentration (CC50) at 96 h was greater than 33 µM. In addition, the CC50 at 120 h in series [2] is greater than 100 µM. Besides, the CC50 at 96 h in series [3] was greater than 100 µM. Further, the CC50 at 72 h in series [4] was greater than 100 µM.

With `Nc1ccn([C@@H]2O[C@H](CO)[C@@H](O)[C@]2(F)Cl)c(=O)n1`, in the series with Hepatitis C virus, the EC50 came to 0.3 µM. Besides, the 90% effect concentration (EC90) in the series on Hepatitis C virus came to 0.9 µM. Also, the CC50 at 96 h in series [1] is greater than 10 µM; in series [3] it was greater than 100 µM. In series [2], the cytotoxic concentration (CC50) at 120 h stood at 12 µM. Also, the 50% cytotoxic concentration (CC50) at 72 h in series [4] came to 8.4 µM.

As to `CC(C)OC(=O)[C@H](C)NP(=O)(OC[C@H]1O[C@@H](n2cnc3c(=O)[nH]c(N)nc32)[C@@](F)(Cl)[C@@H]1O)Oc1ccccc1` (stereo partly drawn), in the series on Hepatitis C virus, the EC50 worked out at 0.3 µM. The EC90 in the series with Hepatitis C virus is 0.8 µM. Besides, the figures for the CC50 at 96 h in series [1] and in series [3] were greater than 10 µM and greater than 100 µM, respectively. In series [2], the CC50 at 120 h was greater than 100 µM. The CC50 at 72 h in series [4] was greater than 100 µM.

Turning to `C[C@@]1(O)[C@H](O)[C@@H](CO)O[C@H]1n1ccc(N)nc1=O`, in the series on Hepatitis C virus, the EC50 turned out to be 1.7 µM. Further, the EC90 in the series with Hepatitis C virus came to 6.5 µM. Also, the figures for the CC50 at 96 h in series [1] and in series [3] were greater than 10 µM and greater than 100 µM, respectively. In addition, in series [2], the CC50 at 120 h was greater than 100 µM. The CC50 at 72 h in series [4] was greater than 100 µM.

On to `Nc1ncnc2c1ccn2[C@@H]1O[C@H](CO)C(O)C1(F)Cl` (single isomer, unassigned), for which, in the series on Hepatitis C virus, the EC50 is greater than 10 µM and the EC90 was greater than 10 µM. In addition, the CC50 at 96 h in series [1] was greater than 10 µM.

`CC(C)OC(=O)[C@H](C)NP(=O)(OC[C@H]1O[C@@H](n2cnc3c(N)ncnc32)C(F)(Cl)C1O)Oc1ccccc1` (single isomer, unassigned): in the series with Hepatitis C virus, the EC50 came out at 0.6 µM and the EC90 is 2.1 µM. Also, the half-maximal cytotoxic concentration (CC50) at 96 h in series [1] was greater than 33 µM. The CC50 at 120 h in series [2] turned out to be 84.8 µM. Besides, the CC50 at 96 h in series [3] was determined as 36.3 µM. Moreover, in series [4], the CC50 at 72 h came out at 53.9 µM.

Consider `Nc1ncnc2c1c(F)cn2[C@@H]1O[C@H](CO)C(O)C1(F)Cl` (single isomer, unassigned), for which, in the series with Hepatitis C virus, the EC50 is greater than 10 µM and the 90% effect concentration (EC90) is greater than 10 µM. Also, the CC50 at 96 h in series [1] is greater than 10 µM. Moreover, the CC50 at 120 h in series [2] was 82.6 µM. Moreover, the CC50 at 96 h in series [3] came to 19.9 µM. Moreover, the CC50 at 72 h in series [4] is 42.4 µM.

Consider `Nc1ncnc2c1c(I)cn2[C@@H]1O[C@H](CO)C(O)C1(F)Cl` (single isomer, unassigned), for which, in the series on Hepatitis C virus, the EC50 was greater than 10 µM. For the same compound, the concentration for an effect of 90% (EC90) in the series on Hepatitis C virus was greater than 10 µM. The results for the CC50 at 96 h in series [1] and in series [3] were greater than 10 µM and 7.3 µM, respectively. Also, the CC50 at 120 h in series [2] is 6.6 µM. In addition, the CC50 at 72 h in series [4] came out at 11.5 µM.

Regarding `Nc1ncnc2c1ncn2[C@@H]1O[C@H](CO)C(O)C1(F)Cl` (single isomer, unassigned), the EC50 in the series with Hepatitis C virus is greater than 10 µM. Moreover, the EC90 in the series on Hepatitis C virus was greater than 10 µM. In addition, the CC50 at 96 h in series [1] was greater than 10 µM; in series [3], greater than 100 µM. For the same compound, in series [2], the CC50 at 120 h was greater than 100 µM. Further, the CC50 at 72 h in series [4] was greater than 100 µM.

Turning to `CC(C)OC(=O)[C@H](C)NP(=O)(OC[C@H]1O[C@@H](n2cc(I)c3c(N)ncnc32)C(F)(Cl)C1O)Oc1ccccc1` (single isomer, unassigned), in the series with Hepatitis C virus, the concentration giving a half-maximal response (EC50) is greater than 10 µM and the EC90 was greater than 10 µM. In addition, the half-maximal cytotoxic concentration (CC50) at 96 h in series [1] was greater than 10 µM. In series [2], the CC50 at 120 h is greater than 100 µM. For the same compound, the CC50 at 96 h in series [3] stood at 69.3 µM. The CC50 at 72 h in series [4] was greater than 100 µM.
